According to patent publication US20020025347A1, “Treatment of diabetic nephropathy and microalbuminuria” (Shiva Biomedical, LLC, priority 1999, published 2002):
Entries after “also recorded” stand apart in the source; their conditions may differ. Structures can show the parent of a compound that is named as a salt.

Columns and labels:
ERK2 = experiment: High glucose-induced phosphorylation of ERK in mesangial cells (Western blot); type: cell-based, Murine; conditions: MES-13 cells, 30 mM glucose, 50 μg/mL
Method: (§1) Murine renal mesangial cells were used in these experiments. The mesangial cells (MES-13) were cloned from transgenic mice. The twenty-fifth passage of the originally plated cells was used in the experiments. MES-13 cells were grown in Dulbecco's Modified Eagle's Medium (DMEM) containing 15% fetal bovine serum (FBS), 1% streptomycin-penicillin mixture, fungizone 0.2 μg/mL, 44 mM NaHCO3 and 14 mM HEPES at 37° C. in a humid atmosphere containing 5% CO2 and 95% air. Subcultures were seeded from confluent stock cultures by trypsinization in Hanks balanced salt solution containing 0.5 mM EDTA and 0.025% trypsin and grown in DMEM containing 15% FBS for 24 hr to near confluence (80%). Near confluent cells were incubated with serum-free DMEM to arrest cell growth and synchronize cell cultures. After 24 hr, the media was changed to serum-free DMEM containing 5.5 mM (normal) or 30 mM (high) glucose and cells cultured for 5 days. Cells were then incubated with a salt of lithospermic acid at 25 μg/mL or 50 μg/mL for 24 hours. […] Protein concentration in cell lysate and culture media samples was determined by the method of Lowry with BSA as a standard (Lowry, O. H., et al., J. Biol. Chem. 193:265-275 (1951)). […] After washing, the antigen-antibody complexes were detected by enhanced chemiluminesence (Amersham International, England) and quantitated densitometry.

protein kinase C (PKC) = experiment: High glucose-induced protein kinase C activity in mesangial cells; type: cell-based, Murine; conditions: MES-13 cells, 30 mM glucose 5 days, then 25 or 50 μg/mL for 24 hours
Method: Murine renal mesangial cells were used in these experiments. The mesangial cells (MES-13) were cloned from transgenic mice. The twenty-fifth passage of the originally plated cells was used in the experiments. MES-13 cells were grown in Dulbecco's Modified Eagle's Medium (DMEM) containing 15% fetal bovine serum (FBS), 1% streptomycin-penicillin mixture, fungizone 0.2 μg/mL, 44 mM NaHCO3 and 14 mM HEPES at 37° C. in a humid atmosphere containing 5% CO2 and 95% air. Subcultures were seeded from confluent stock cultures by trypsinization in Hanks balanced salt solution containing 0.5 mM EDTA and 0.025% trypsin and grown in DMEM containing 15% FBS for 24 hr to near confluence (80%). Near confluent cells were incubated with serum-free DMEM to arrest cell growth and synchronize cell cultures. After 24 hr, the media was changed to serum-free DMEM containing 5.5 mM (normal) or 30 mM (high) glucose and cells cultured for 5 days. […] The amount of PKC in lysates of cells cultured in presence of high glucose (30 mM) and normal glucose (control, 5.5 mM) was determined using a commercially available kit (Upstate Biotechnology, Lake Placid N.Y.). […] Assay squares were placed into vials and radioactivity determined by scintillation counting. PKC activity was expressed as pmol/min/protein. Significant differences between group means were determined using the unpaired or paired Student's t-test.

TGF-β1 = experiment: High glucose-induced TGF-β1 secretion from mesangial cells (Western blot); type: cell-based, Murine; conditions: MES-13 cells, 30 mM glucose, 25 or 50 μg/mL for 24 hours
Method: as §1

fibronectin = experiment: High glucose-induced fibronectin synthesis and secretion from mesangial cells (Western blot); type: cell-based, Murine; conditions: MES-13 cells, 30 mM glucose, 50 μg/mL
Method: as §1

MEK2 = experiment: High glucose-induced phosphorylation of MEK in mesangial cells (Western blot); type: cell-based, Murine; conditions: MES-13 cells
Method: as §1

[1] = tested on: STZ-induced diabetic rats; experiment: Treatment of STZ-induced diabetic rats with a salt of lithospermic acid; type: in vivo, Sprague-Dawley rats
Method: Sprague-Dawley rats (3-4 months of age, 250-300 g) were housed individually in sterile microisolator cages in a Specific Pathogen Free animal care facility. Rats were fed standard Rat chow and water was available ad libitum. Animals were maintained in temperature (25° C.) and humidity (40%) controlled rooms with a 12-h light/12 h dark cycle. Rats were randomly assigned to three experimental groups: Group I, nondiabetic control (n=10), Group II, untreated diabetic (n=10); and Group III, salt of lithospermic acid-treated diabetic (n=10). Insulin dependent diabetes was induced by a single intravenous injection of freshly prepared streptozotocin (STZ) (50 mg/kg in 0.1 M citrate buffer, pH 4.5) (Schmidt, R. E., et al., Diabetes 45(3):284-290 (1996)). A rat was considered diabetic when the nonfasting plasma glucose level was greater than about 17 mmol/L, 3 days following injection of STZ. Eight weeks following the administration of STZ, animals were treated with a salt of lithospermic acid by intramuscularly injections once daily (20 mg salt of lithospermic acid/kg body weight) for 8 weeks. Body weights were recorded weekly before and throughout the treatment period. Twenty-four hour urine and glycosylated hemoglobin levels were determined at 8, 12 and 16 weeks after injection of STZ. Urine samples were centrifuged (3000 rpm for 10 min) and the supernatant analyzed for creatinine and protein levels using standard techniques (Matsuo, Y., et al., Pharmacology 50:1-8 (1995)).

[2] = treated diabetic rats, 20 mg/kg intramuscularly once daily for 8 weeks

HCT ([1]; treated diabetic rats): 37.44 ± 3.13%
Hb ([1]; treated diabetic rats): 14.44 ± 0.87 g/dL
MCH ([1]; treated diabetic rats): 21.13 ± 0.69 pg
WBC ([1]; treated diabetic rats): 11.95 ± 4.66 × 10(3)
Albumin [1, 2]: 1.75 ± 0.31 g/dL
Bilirubin [1, 2]: 1.14 ± 1.10 mg/dL
Cl [1, 2]: 101.5 ± 2.65 mmol/L
D. Bil [1, 2]: 0.67 ± 0.7 mg/dL
GOT [1, 2]: 239 ± 157 U/L
GPT [1, 2]: 102.75 ± 73.74 U/L
K [1, 2]: 19.53 ± 12.8 mmol/L
Na [1, 2]: 130.3 ± 6.24 mmol/L
Serum Protein [1, 2]: 6.28 ± 0.54 g/dL
Uric Acid [1, 2]: 1.6 ± 1.07 mg/dL
r-GTP [1, 2]: 2.75 ± 2.75 U/L
Compound: O=C(/C=C/c1ccc(O)c2c1[C@H](C(=O)O)[C@@H](c1ccc(O)c(O)c1)O2)O[C@H](Cc1ccc(O)c(O)c1)C(=O)O [salt of lithospermic acid]
phosphorylated ERK2 in high glucose (FIG. 5) (ERK2): decrease in phosphorylated ERK2 to about control levels
PKC activity in high glucose (FIG. 2) (protein kinase C (PKC)): decreased PKC activity
TGF-β1 secretion in high glucose (FIG. 3) (TGF-β1): decreased high glucose-induced TGF-β1 secretion
fibronectin levels in high glucose (FIG. 4) (fibronectin): decreased fibronectin levels to about that of control levels
phosphorylated MEK2 (MEK P) in high glucose (FIG. 7) (MEK2; high glucose, 50 μg/mL): approached control levels
total amount of MEK2 (MEK2-T, phosphorylated and nonphosphorylated) (FIG. 8) (MEK2; regardless of glucose concentration or treatment): remained constant
effect on blood glucose levels in diabetic rats ([1]; 20 mg/kg intramuscularly once daily for 8 weeks): did not significantly lower blood glucose levels
urinary protein levels (FIG. 1) ([1]; 20 mg/kg intramuscularly once daily for 8 weeks, started 8 weeks after STZ, compared to untreated diabetic and nondiabetic control rats): significantly (p<0.001) lowered urinary protein levels; also recorded: approached the levels observed in control, nondiabetic rats
BUN [1, 2]: 28.1 ± 5.32 mg/dL
Cholesterol [1, 2]: 47 ± 7.35 mg/dL
Creatinine [1, 2]: 0.6 ± 0.12 mg/dL
Glucose [1, 2]: 508.5 ± 160.4 mg/dL
HbAlc ([1]; treated diabetic rats, p < 0.01 vs. control): 8.59 ± 1.59 %
